In patent USRE43005E1, “Compositions and methods for their preparation from lepidium” (Naturex Inc., priority 1999, dated 2011):

| melting point [°C] | SMILES |
| --- | --- |
| 76 to 78 | CCCCCCCC(=O)NCc1ccccc1 [MA-3, N-benzyl octanamide] |
| 115 to 116 | CCC(=O)/C=C/C=C/C=C/C(=O)CCCCCCCC(=O)NCc1ccccc1 [MA-9, N-benzyl-9,16-dioxo-10E,12E,14E-octadecatrienamide] |
